Assay results reported in patent US20070010671A1, “Novel quinazoline derivatives and methods of treatment related to the use thereof” (priority 2003, published 2007).

molecular target: MCH receptor (Homo sapiens, UniProt Q99705); assay: High throughput functional screening FLIPR/FDSS6000: inhibition of MCH-evoked intracellular Ca2+ changes; assay type: cell-based; conditions: class by percent of control at 10^-7 M or IC50
Procedure, shortened: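 In a kinetic calcium-flux format, compounds were tested at various concentrations against 50 nM MCH. Fluo4-loaded cells expressing a constitutively active, non-endogenous receptor were imaged at 488/530 nm for 290 s after agonist addition.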

Question: How did the class turn out when `CN(C)c1nc(N[C@H]2CC[C@@H](NC(=S)Nc3ccc(-c4cnco4)cc3)CC2)nc2ccccc12` [compound 401] was run?
Answer: 3 (Class 3: The value of percent of control at 10^−7 M was more than 60% or the value of IC50 was more than 200 nM.)

Question: `Cc1onc(-c2ccccc2)c1NC(=S)N[C@H]1CC[C@@H](Nc2nc(N(C)C)c3ccccc3n2)CC1` [compound 402, N-(cis-4-{[4-(dimethylamino)quinazolin-2-yl]amino}cyclohexyl)-N′-(5-methyl-3-phenylisoxazol-4-yl)thiourea] was tested. Which class did it give?
Answer: 1 (Class 1: The value of percent of control at 10^−7 M was less than 40% or the value of IC50 was less than 50 nM.)

Question: How did the class turn out when `CN(C)c1nc(N[C@H]2CC[C@@H](NC(=S)Nc3ccc(N4CCOCC4)nc3)CC2)nc2ccccc12` [compound 403] was run?
Answer: 3 (Class 3: The value of percent of control at 10^−7 M was more than 60% or the value of IC50 was more than 200 nM.)

Question: With `CN(C)c1nc(N[C@H]2CC[C@@H](NC(=S)Nc3ccc(Oc4ccccc4)nc3)CC2)nc2ccccc12` [compound 404] as the molecule, how does the class read?
Answer: 3 (Class 3: The value of percent of control at 10^−7 M was more than 60% or the value of IC50 was more than 200 nM.)

Question: `CC(=O)c1cccc(NC(=O)NC[C@H]2CC[C@@H](Nc3nc(N(C)C)c4ccccc4n3)CC2)c1` [compound 405] was tested. Which class did it give?
Answer: 3 (Class 3: The value of percent of control at 10^−7 M was more than 60% or the value of IC50 was more than 200 nM.)

Question: Which class does the source give for `CC(=O)c1ccc(NC(=O)NC[C@H]2CC[C@@H](Nc3nc(N(C)C)c4ccccc4n3)CC2)cc1` [compound 407] here?
Answer: 3 (Class 3: The value of percent of control at 10^−7 M was more than 60% or the value of IC50 was more than 200 nM.)

Question: Which class does the source give for `CN(C)c1nc(N[C@H]2CC[C@@H](CNC(=O)NC(=O)c3ccccc3)CC2)nc2ccccc12` [compound 408] here?
Answer: 3 (Class 3: The value of percent of control at 10^−7 M was more than 60% or the value of IC50 was more than 200 nM.)

Question: Which class does the source give for `CN(C)c1nc(N[C@H]2CC[C@@H](CNC(=O)Nc3cc(C(F)(F)F)cc(C(F)(F)F)c3)CC2)nc2ccccc12` [compound 409] here?
Answer: 3 (Class 3: The value of percent of control at 10^−7 M was more than 60% or the value of IC50 was more than 200 nM.)

Question: With `CN(C)c1nc(N[C@H]2CC[C@@H](CNC(=O)NCc3ccccc3)CC2)nc2ccccc12` [compound 410] as the molecule, how does the class read?
Answer: 3 (Class 3: The value of percent of control at 10^−7 M was more than 60% or the value of IC50 was more than 200 nM.)

Question: With `CN(C)c1nc(N[C@H]2CC[C@@H](CNC(=O)Nc3ccccc3Br)CC2)nc2ccccc12` [compound 411, N-(2-bromophenyl)-N′-[(cis-4-{[4-(dimethylamino)quinazolin-2-yl]amino}cyclohexyl)methyl]urea] as the molecule, how does the class read?
Answer: 2 (Class 2: The value of percent of control at 10^−7 M was from 40% to 60% or the value of IC50 was from 50 nM to 200 nM.)

Question: Which class does the source give for `CN(C)c1nc(N[C@H]2CC[C@@H](CNC(=O)Nc3ccccc3-c3ccccc3)CC2)nc2ccccc12` [compound 412, N-biphenyl-2-yl-N′-[(cis-4-{[4-(dimethylamino)quinazolin-2-yl]amino}cyclohexyl)methyl]urea] here?
Answer: 2 (Class 2: The value of percent of control at 10^−7 M was from 40% to 60% or the value of IC50 was from 50 nM to 200 nM.)

Question: For `CN(C)c1nc(N[C@H]2CC[C@@H](CNC(=O)Nc3ccc(Br)cc3)CC2)nc2ccccc12` [compound 413], which class is on record?
Answer: 3 (Class 3: The value of percent of control at 10^−7 M was more than 60% or the value of IC50 was more than 200 nM.)

Question: For `CCCCNC(=O)NC[C@H]1CC[C@@H](Nc2nc(N(C)C)c3ccccc3n2)CC1` [compound 414, N-butyl-N′-[(cis-4-{[4-(dimethylamino)quinazolin-2-yl]amino}cyclohexyl)methyl]urea], which class is on record?
Answer: 2 (Class 2: The value of percent of control at 10^−7 M was from 40% to 60% or the value of IC50 was from 50 nM to 200 nM.)

Question: With `CN(C)c1nc(N[C@H]2CC[C@@H](CNC(=O)Nc3cccc(Cl)c3)CC2)nc2ccccc12` [compound 415, N-(3-chlorophenyl)-N′-[(cis-4-{[4-(dimethylamino)quinazolin-2-yl]amino}cyclohexyl)methyl]urea] as the molecule, how does the class read?
Answer: 2 (Class 2: The value of percent of control at 10^−7 M was from 40% to 60% or the value of IC50 was from 50 nM to 200 nM.)

Question: For `CN(C)c1nc(N[C@H]2CC[C@@H](CNC(=O)Nc3ccc(Cl)cc3)CC2)nc2ccccc12` [compound 416], which class is on record?
Answer: 3 (Class 3: The value of percent of control at 10^−7 M was more than 60% or the value of IC50 was more than 200 nM.)

Question: Which class does the source give for `CN(C)c1nc(N[C@H]2CC[C@@H](CNC(=O)NC3CCCCC3)CC2)nc2ccccc12` [compound 417, N-cyclohexyl-N′-[(cis-4-{[4-(dimethylamino)quinazolin-2-yl]amino}cyclohexyl)methyl]urea] here?
Answer: 2 (Class 2: The value of percent of control at 10^−7 M was from 40% to 60% or the value of IC50 was from 50 nM to 200 nM.)

Question: How did the class turn out when `CN(C)c1nc(N[C@H]2CC[C@@H](CNC(=O)Nc3cccc(C#N)c3)CC2)nc2ccccc12` [compound 418, N-(3-cyanophenyl)-N′-[(cis-4-{[4-(dimethylamino)quinazolin-2-yl]amino}cyclohexyl)methyl]urea] was run?
Answer: 2 (Class 2: The value of percent of control at 10^−7 M was from 40% to 60% or the value of IC50 was from 50 nM to 200 nM.)

Question: Which class does the source give for `CN(C)c1nc(N[C@H]2CC[C@@H](CNC(=O)Nc3ccccc3Cl)CC2)nc2ccccc12` [compound 419, N-(2-chlorophenyl)-N′-[(cis-4-{[4-(dimethylamino)quinazolin-2-yl]amino}cyclohexyl)methyl]urea] here?
Answer: 1 (Class 1: The value of percent of control at 10^−7 M was less than 40% or the value of IC50 was less than 50 nM.)

Question: Which class does the source give for `Cc1cccc(C)c1NC(=O)NC[C@H]1CC[C@@H](Nc2nc(N(C)C)c3ccccc3n2)CC1` [compound 420, N-[(cis-4-{[4-(dimethylamino)quinazolin-2-yl]amino}cyclohexyl)methyl]-N′-(2,6-dimethylphenyl)urea] here?
Answer: 1 (Class 1: The value of percent of control at 10^−7 M was less than 40% or the value of IC50 was less than 50 nM.)

Question: `CN(C)c1nc(N[C@H]2CC[C@@H](CNC(=O)Nc3ccc(Cl)c(Cl)c3)CC2)nc2ccccc12` [compound 421, N-(3,4-dichlorophenyl)-N′-[(cis-4-{[4-(dimethylamino)quinazolin-2-yl]amino}cyclohexyl)methyl]urea] was tested. Which class did it give?
Answer: 2 (Class 2: The value of percent of control at 10^−7 M was from 40% to 60% or the value of IC50 was from 50 nM to 200 nM.)

Question: With `CN(C)c1nc(N[C@H]2CC[C@@H](CNC(=O)Nc3ccc(F)cc3F)CC2)nc2ccccc12` [compound 422, N-(2,4-difluorophenyl)-N′-[(cis-4-{[4-(dimethylamino)quinazolin-2-yl]amino}cyclohexyl)methyl]urea] as the molecule, how does the class read?
Answer: 1 (Class 1: The value of percent of control at 10^−7 M was less than 40% or the value of IC50 was less than 50 nM.)

Question: With `CN(C)c1nc(N[C@H]2CC[C@@H](CNC(=O)Nc3ccc(Cl)cc3Cl)CC2)nc2ccccc12` [compound 423, N-(2,4-dichlorophenyl)-N′-[(cis-4-{[4-(dimethylamino)quinazolin-2-yl]amino}cyclohexyl)methyl]urea] as the molecule, how does the class read?
Answer: 2 (Class 2: The value of percent of control at 10^−7 M was from 40% to 60% or the value of IC50 was from 50 nM to 200 nM.)

Question: `CN(C)c1nc(N[C@H]2CC[C@@H](CNC(=O)Nc3cc(Cl)cc(Cl)c3)CC2)nc2ccccc12` [compound 424, N-(3,5-dichlorophenyl)-N′-[(cis-4-{[4-(dimethylamino)quinazolin-2-yl]amino}cyclohexyl)methyl]urea] was tested. Which class did it give?
Answer: 1 (Class 1: The value of percent of control at 10^−7 M was less than 40% or the value of IC50 was less than 50 nM.)

Question: How did the class turn out when `CN(C)c1nc(N[C@H]2CC[C@@H](CNC(=O)Nc3cccc(Cl)c3Cl)CC2)nc2ccccc12` [compound 425, N-(2,3-dichlorophenyl)-N′-[(cis-4-{[4-(dimethylamino)quinazolin-2-yl]amino}cyclohexyl)methyl]urea] was run?
Answer: 1 (Class 1: The value of percent of control at 10^−7 M was less than 40% or the value of IC50 was less than 50 nM.)

Question: `CN(C)c1nc(N[C@H]2CC[C@@H](CNC(=O)Nc3c(F)cccc3F)CC2)nc2ccccc12` [compound 426, N-(2,6-difluorophenyl)-N′-[(cis-4-{[4-(dimethylamino)quinazolin-2-yl]amino}cyclohexyl)methyl]urea] was tested. Which class did it give?
Answer: 2 (Class 2: The value of percent of control at 10^−7 M was from 40% to 60% or the value of IC50 was from 50 nM to 200 nM.)

Question: `CN(C)c1nc(N[C@H]2CC[C@@H](CNC(=O)Nc3cc(Cl)ccc3Cl)CC2)nc2ccccc12` [compound 427] was tested. Which class did it give?
Answer: 3 (Class 3: The value of percent of control at 10^−7 M was more than 60% or the value of IC50 was more than 200 nM.)

Question: With `Cc1cccc(NC(=O)NC[C@H]2CC[C@@H](Nc3nc(N(C)C)c4ccccc4n3)CC2)c1C` [compound 428, N-[(cis-4-{[4-(dimethylamino)quinazolin-2-yl]amino}cyclohexyl)methyl]-N′-(2,3-dimethylphenyl)urea] as the molecule, how does the class read?
Answer: 1 (Class 1: The value of percent of control at 10^−7 M was less than 40% or the value of IC50 was less than 50 nM.)

Question: With `CCOC(=O)CNC(=O)NC[C@H]1CC[C@@H](Nc2nc(N(C)C)c3ccccc3n2)CC1` [compound 429] as the molecule, how does the class read?
Answer: 3 (Class 3: The value of percent of control at 10^−7 M was more than 60% or the value of IC50 was more than 200 nM.)

Question: `CCOC(=O)c1cccc(NC(=O)NC[C@H]2CC[C@@H](Nc3nc(N(C)C)c4ccccc4n3)CC2)c1` [compound 430] was tested. Which class did it give?
Answer: 3 (Class 3: The value of percent of control at 10^−7 M was more than 60% or the value of IC50 was more than 200 nM.)

Question: With `CCOC(=O)c1ccc(NC(=O)NC[C@H]2CC[C@@H](Nc3nc(N(C)C)c4ccccc4n3)CC2)cc1` [compound 431] as the molecule, how does the class read?
Answer: 3 (Class 3: The value of percent of control at 10^−7 M was more than 60% or the value of IC50 was more than 200 nM.)

Question: For `CCc1ccc(NC(=O)NC[C@H]2CC[C@@H](Nc3nc(N(C)C)c4ccccc4n3)CC2)cc1` [compound 432, N-[(cis-4-{[4-(dimethylamino)quinazolin-2-yl]amino}cyclohexyl)methyl]-N′-(4-ethylphenyl)urea], which class is on record?
Answer: 2 (Class 2: The value of percent of control at 10^−7 M was from 40% to 60% or the value of IC50 was from 50 nM to 200 nM.)
